Test results: PubChem BioAssay AID330 (DTP/NCI, 2004)
Several values for one entry are separate records, joined by “and”; a condition that tells them apart may be missing. Equal values may be shown once. Inconclusive results and toxic doses are left out.

System: P388 leukemia ip, CD2F1 mice, survival T/C
Experiment: NCI In Vivo Anticancer Drug Screen. Data for tumor model P388 Leukemia (intraperitoneal) in CD2F1 (CDF1) mice
Conditions: endpoint: median survival time, higher = longer survival
Method in brief: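 Mice carrying the transplanted tumor received test compound or vehicle. Survival was recorded in each group, and the value is the treated-group measurement divided by that of the vehicle-treated control group.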

[1] = dose: 50.0 mg/kg/injection, schedule: Q01DX005 (ip), vehicle: saline
[2] = dose: 60.0 mg/kg/injection, schedule: Q01DX005 (ip), vehicle: saline
[3] = dose: 100.0 mg/kg/injection, schedule: Q01DX005 (ip), vehicle: saline
[4] = dose: 120.0 mg/kg/injection, schedule: Q01DX005 (ip), vehicle: saline with Tween-80
[5] = dose: 120.0 mg/kg/injection, schedule: Q01DX005 (ip), vehicle: saline
[6] = dose: 240.0 mg/kg/injection, schedule: Q01DX005 (ip), vehicle: saline with Tween-80
[7] = dose: 240.0 mg/kg/injection, schedule: Q01DX005 (ip), vehicle: saline

CCC[C@H]1[C@H](CCC)[C@@]2(OC(=O)C3=C2CCC=C3)[C@]12OC(=O)C1=C2CCC=C1
T/C (dose: 11.25 mg/kg/injection, schedule: Q01DX005 (ip), vehicle: Klucel (hydroxypropylcellulose) (HPC)): 98 % of control | T/C (dose: 22.5 mg/kg/injection, schedule: Q01DX005 (ip), vehicle: Klucel (hydroxypropylcellulose) (HPC)): 90 % of control | T/C (dose: 45.0 mg/kg/injection, schedule: Q01DX005 (ip), vehicle: Klucel (hydroxypropylcellulose) (HPC)): 88 % of control | T/C (dose: 90.0 mg/kg/injection, schedule: Q01DX005 (ip), vehicle: Klucel (hydroxypropylcellulose) (HPC)): 100 % of control

CC1=NCCCN(CCN(C)C)CCCN=C(C)C2CCCC1[N-]2.[Ni+2].[O-][Cl+3]([O-])([O-])O
T/C (dose: 6.25 mg/kg/injection, schedule: Q01DX001 (ip), vehicle: saline): 100 % of control | T/C (dose: 12.5 mg/kg/injection, schedule: Q01DX001 (ip), vehicle: saline): 100 % of control | T/C (dose: 25.0 mg/kg/injection, schedule: Q01DX001 (ip), vehicle: saline): 100 % of control and 102 % of control

Nc1nc(=O)n(C2OC(CO)C(O)C2O)cc1F (stereo unspecified)
T/C (dose: 9.0 mg/kg/injection, schedule: Q01DX009 (ip), vehicle: saline sonified): 190 % of control | T/C (dose: 9.0 mg/kg/injection, schedule: Q04DX003 (ip), vehicle: saline sonified): 154 % of control | T/C (dose: 18.0 mg/kg/injection, schedule: Q01DX009 (ip), vehicle: saline sonified): 200 % of control | T/C (dose: 18.0 mg/kg/injection, schedule: Q04DX003 (ip), vehicle: saline sonified): 162 % of control | T/C (dose: 24.0 mg/kg/injection, schedule: Q04DX003 (ip), vehicle: saline with Tween-80): 181 % of control | T/C (dose: 36.0 mg/kg/injection, schedule: Q01DX009 (ip), vehicle: saline sonified): 236 % of control | T/C (dose: 36.0 mg/kg/injection, schedule: Q04DX003 (ip), vehicle: saline sonified): 162 % of control | T/C (dose: 36.0 mg/kg/injection, schedule: Q04DX003 (ip), vehicle: saline with Tween-80): 172 % of control | T/C (dose: 54.0 mg/kg/injection, schedule: Q04DX003 (ip), vehicle: saline with Tween-80): 186 % of control

O=C1OCC2C(=O)OCC12 (stereo unspecified)
T/C (dose: 4.0 mg/kg/injection, schedule: Q01DX009 (ip), vehicle: saline with Tween-80): 113 % of control and 87 % of control | T/C (dose: 8.0 mg/kg/injection, schedule: Q01DX009 (ip), vehicle: saline with Tween-80): 108 % of control and 109 % of control and 96 % of control | T/C (dose: 16.0 mg/kg/injection, schedule: Q01DX009 (ip), vehicle: saline with Tween-80): 100 % of control and 109 % of control and 118 % of control | T/C (dose: 32.0 mg/kg/injection, schedule: Q01DX009 (ip), vehicle: saline with Tween-80): 104 % of control and 124 % of control and 95 % of control | T/C (dose: 50.0 mg/kg/injection, schedule: Q04DX003 (ip), vehicle: saline with Tween-80): 99 % of control | T/C (dose: 64.0 mg/kg/injection, schedule: Q01DX009 (ip), vehicle: saline with Tween-80): 100 % of control and 109 % of control and 124 % of control | T/C (dose: 100.0 mg/kg/injection, schedule: Q04DX003 (ip), vehicle: saline with Tween-80): 102 % of control | T/C (dose: 128.0 mg/kg/injection, schedule: Q01DX009 (ip), vehicle: saline with Tween-80): 113 % of control | T/C (dose: 200.0 mg/kg/injection, schedule: Q04DX003 (ip), vehicle: saline with Tween-80): 105 % of control | T/C (dose: 400.0 mg/kg/injection, schedule: Q04DX003 (ip), vehicle: saline with Tween-80): 99 % of control

O=C1Cc2ccccc2N1C1c2ccccc2C=Cc2ccccc21
T/C (dose: 50.0 mg/kg/injection, schedule: Q01DX009 (ip), vehicle: saline with Tween-80): 95 % of control | T/C (dose: 100.0 mg/kg/injection, schedule: Q01DX009 (ip), vehicle: saline with Tween-80): 86 % of control | T/C (dose: 200.0 mg/kg/injection, schedule: Q01DX009 (ip), vehicle: saline with Tween-80): 89 % of control

OCC1OC(ONc2ccccc2)C(O)C(O)C1O (stereo unspecified)
T/C (dose: 60.0 mg/kg/injection, schedule: Q01DX005 (ip), vehicle: Klucel (hydroxypropylcellulose) (HPC)): 94 % of control | T/C (dose: 120.0 mg/kg/injection, schedule: Q01DX005 (ip), vehicle: Klucel (hydroxypropylcellulose) (HPC)): 99 % of control | T/C (dose: 240.0 mg/kg/injection, schedule: Q01DX005 (ip), vehicle: Klucel (hydroxypropylcellulose) (HPC)): 100 % of control

O=C1NC(=O)C2C3CCC(O3)C12 (stereo unspecified)
T/C [1]: 106 % of control and 99 % of control | T/C (dose: 60.0 mg/kg/injection, schedule: Q01DX005 (ip), vehicle: saline with Tween-80): 94 % of control | T/C [2]: 101 % of control | T/C [3]: 106 % of control and 98 % of control | T/C [4]: 100 % of control | T/C [5]: 102 % of control | T/C [6]: 106 % of control | T/C [7]: 92 % of control

COc1ccc(C2(O)OCC(COc3cc(C)c(Cl)c(C)c3)O2)cc1OC (stereo unspecified)
T/C (dose: 60.0 mg/kg/injection, schedule: Q01DX005 (ip), vehicle: DMSO): 114 % of control | T/C (dose: 120.0 mg/kg/injection, schedule: Q01DX005 (ip), vehicle: DMSO): 123 % of control | T/C (dose: 240.0 mg/kg/injection, schedule: Q01DX005 (ip), vehicle: DMSO): 109 % of control

CCOC(=O)C1=C(N)N(S(=O)(=O)c2ccc(C)cc2)CCC(C(=O)OC)=C1
T/C [4]: 119 % of control | T/C [6]: 108 % of control

CCC1(O)C(=O)OCc2c1cc(-c1ccc(Cl)cc1)nc2OC (stereo unspecified)
T/C (dose: 12.5 mg/kg/injection, schedule: Q01DX009 (ip), vehicle: distilled water + Tween-80): 101 % of control | T/C (dose: 25.0 mg/kg/injection, schedule: Q01DX009 (ip), vehicle: distilled water + Tween-80): 100 % of control | T/C (dose: 50.0 mg/kg/injection, schedule: Q01DX009 (ip), vehicle: distilled water + Tween-80): 99 % of control | T/C (dose: 100.0 mg/kg/injection, schedule: Q01DX009 (ip), vehicle: distilled water + Tween-80): 91 % of control | T/C (dose: 200.0 mg/kg/injection, schedule: Q01DX009 (ip), vehicle: distilled water + Tween-80): 98 % of control

COc1ccc(C(SCC(N)C(=O)O)(c2ccccc2)c2ccccc2)cc1 (stereo unspecified)
T/C (dose: 66.0 mg/kg/injection, schedule: Q04DX003 (ip), vehicle: Klucel (hydroxypropylcellulose) (HPC)): 105 % of control | T/C (dose: 100.0 mg/kg/injection, schedule: Q04DX003 (ip), vehicle: Klucel (hydroxypropylcellulose) (HPC)): 150 % of control

CNC(=O)OCc1c(Cl)nc2sccn12
T/C (dose: 100.0 mg/kg/injection, schedule: Q01DX001 (ip), vehicle: Klucel (hydroxypropylcellulose) (HPC)): 109 % of control | T/C (dose: 200.0 mg/kg/injection, schedule: Q01DX001 (ip), vehicle: Klucel (hydroxypropylcellulose) (HPC)): 100 % of control | T/C (dose: 400.0 mg/kg/injection, schedule: Q01DX001 (ip), vehicle: Klucel (hydroxypropylcellulose) (HPC)): 100 % of control

C=C(C)[C@@H]1CC[C@@H]2C(=CC[C@]3(C)C([C@H](C)CC/C=C(/C)C(=O)O)CC[C@@]23C)[C@@]1(C)CCC(=O)O (stereo partly specified)
T/C (dose: 1.41 mg/kg/injection, schedule: Q01DX009 (ip), vehicle: saline + alcohol): 88 % of control | T/C (dose: 2.81 mg/kg/injection, schedule: Q01DX009 (ip), vehicle: saline + alcohol): 93 % of control | T/C (dose: 5.63 mg/kg/injection, schedule: Q01DX009 (ip), vehicle: saline + alcohol): 99 % of control | T/C (dose: 11.25 mg/kg/injection, schedule: Q01DX009 (ip), vehicle: saline + alcohol): 99 % of control | T/C (dose: 90.0 mg/kg/injection, schedule: Q01DX009 (ip), vehicle: saline + alcohol): 102 % of control

CCOc1cc(/C=N/NC(=O)N(c2ccccc2)c2ccccc2)ccc1O
T/C (dose: 50.0 mg/kg/injection, schedule: Q01DX005 (ip), vehicle: saline with Tween-80): 88 % of control | T/C (dose: 100.0 mg/kg/injection, schedule: Q01DX005 (ip), vehicle: saline with Tween-80): 88 % of control

COc1ccc(OC)c2c1CC(C(C)=O)CC2=O (stereo unspecified)
T/C (dose: 12.5 mg/kg/injection, schedule: Q01DX009 (ip), vehicle: other): 99 % of control | T/C (dose: 25.0 mg/kg/injection, schedule: Q01DX009 (ip), vehicle: other): 112 % of control | T/C (dose: 50.0 mg/kg/injection, schedule: Q01DX009 (ip), vehicle: other): 105 % of control | T/C (dose: 100.0 mg/kg/injection, schedule: Q01DX009 (ip), vehicle: other): 108 % of control | T/C (dose: 200.0 mg/kg/injection, schedule: Q01DX009 (ip), vehicle: other): 107 % of control

CS(=O)CC(=O)c1ccccn1 (stereo unspecified)
T/C [1]: 106 % of control | T/C [3]: 100 % of control | T/C (dose: 200.0 mg/kg/injection, schedule: Q01DX005 (ip), vehicle: saline): 99 % of control

CC1CC(C)OC(C(C)(C)C)O1 (stereo unspecified)
T/C [2]: 107 % of control | T/C [5]: 109 % of control | T/C [7]: 107 % of control

CC(/C=N/N=C1\C(=O)Nc2ccccc21)=C\c1ccccc1
T/C (dose: 50.0 mg/kg/injection, schedule: Q01DX009 (ip), vehicle: Klucel (hydroxypropylcellulose) (HPC)): 95 % of control | T/C (dose: 100.0 mg/kg/injection, schedule: Q01DX009 (ip), vehicle: Klucel (hydroxypropylcellulose) (HPC)): 94 % of control | T/C (dose: 200.0 mg/kg/injection, schedule: Q01DX009 (ip), vehicle: Klucel (hydroxypropylcellulose) (HPC)): 100 % of control
